Legend:
[1] = molecular target: Replicase polyprotein 1a (Severe acute respiratory syndrome-related coronavirus) (UniProt P0C6U8); assay: Inhibition of human SARS coronavirus 3C like protease at 10 uM
Replicase polyprotein 1a = Replicase polyprotein 1a (Severe acute respiratory syndrome-related coronavirus, UniProt P0C6U8); assay: Inhibition of human SARS coronavirus 3C like protease

SMILES | inhibition [1] [%] | IC50 (Replicase polyprotein 1a) [µM]
Cc1cc2cc(CN(CCc3ccccc3C)C(=O)NCc3ccccc3)c(=O)[nH]c2cc1C | 40 | 17.2
O=C(CSc1nc(C2CCCCC2)nc2ccccc12)NCc1ccco1 | 30 | 18.2

From ChEMBL document CHEMBL1157171, “Structure-based virtual screening against SARS-3CL(pro) to identify novel non-peptidic hits” (Bioorg Med Chem, 2008)
